Experimental data as given in PubChem BioAssay AID248 (DTP/NCI, 2004).
“And” between values parts separate entries of the source, which are not always exact repeats. Equal entries are not always repeated. Toxic doses and inconclusive results are not listed. Cut-off read from the data, not from the text of the source: active = T/C of 150% or more; inactive = T/C below 125%.

Test system: L1210 leukemia ip in BDF1 mice, survival T/C
Assay: NCI In Vivo Anticancer Drug Screen. Data for tumor model L1210 Leukemia (intraperitoneal) in B6D2F1 (BDF1) mice
Details: endpoint: mean survival time, higher = longer survival
Method in brief: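 Value reflects the ratio of survival in compound-treated mice to survival in vehicle-treated controls, with both groups carrying the same transplanted tumor.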

[1] = dose: 50.0 mg/kg/injection, schedule: Q01DX009 (ip), vehicle: saline with Tween-80
[2] = dose: 100.0 mg/kg/injection, schedule: Q01DX009 (ip), vehicle: saline with Tween-80
[3] = dose: 100.0 mg/kg/injection, schedule: Q04DX003 (ip), vehicle: saline with Tween-80
[4] = dose: 200.0 mg/kg/injection, schedule: Q04DX003 (ip), vehicle: saline with Tween-80
[5] = dose: 200.0 mg/kg/injection, schedule: Q01DX009 (ip), vehicle: saline with Tween-80
[6] = dose: 400.0 mg/kg/injection, schedule: Q01DX009 (ip), vehicle: saline with Tween-80
[7] = dose: 75.0 mg/kg/injection, schedule: Q01DX001 (ip), vehicle: saline
[8] = dose: 150.0 mg/kg/injection, schedule: Q01DX001 (ip), vehicle: saline
[9] = dose: 100.0 mg/kg/injection, schedule: Q04DX003 (ip), vehicle: Klucel (hydroxypropylcellulose) (HPC)
[10] = dose: 200.0 mg/kg/injection, schedule: Q04DX003 (ip), vehicle: Klucel (hydroxypropylcellulose) (HPC)
[11] = dose: 400.0 mg/kg/injection, schedule: Q04DX003 (ip), vehicle: Klucel (hydroxypropylcellulose) (HPC)
[12] = dose: 100.0 mg/kg/injection, schedule: Q04DX003 (ip), vehicle: saline
[13] = dose: 200.0 mg/kg/injection, schedule: Q04DX003 (ip), vehicle: saline
[14] = dose: 400.0 mg/kg/injection, schedule: Q04DX003 (ip), vehicle: saline
[15] = dose: 400.0 mg/kg/injection, schedule: Q04DX003 (ip), vehicle: saline with Tween-80
[16] = dose: 100.0 mg/kg/injection, schedule: Q01DX001 (ip), vehicle: carboxymethylcellulose (CMC)
[17] = dose: 200.0 mg/kg/injection, schedule: Q01DX001 (ip), vehicle: carboxymethylcellulose (CMC)
[18] = dose: 400.0 mg/kg/injection, schedule: Q01DX001 (ip), vehicle: carboxymethylcellulose (CMC)

Measured: T/C

CC(C)=CN1CCCCC1
inactive: [1] 95 % of control | [2] 101 % of control | [3] 98 % of control | [4] 96 % of control

CCC(Br)Cc1ccccc1 (configuration not stated)
inactive: dose: 2.0 mg/kg/injection, schedule: Q01DX015 (ip), vehicle: saline 91 % of control | dose: 4.0 mg/kg/injection, schedule: Q01DX015 (ip), vehicle: saline 91 % of control | dose: 8.0 mg/kg/injection, schedule: Q01DX015 (ip), vehicle: saline 91 % of control | dose: 16.0 mg/kg/injection, schedule: Q01DX015 (ip), vehicle: saline 95 % of control

COc1ccc(C=Nc2ccc3c(c2)OCO3)cc1Br
inactive: [2] 88 % of control | dose: 100.0 mg/kg/injection, schedule: Q04DX002 (ip), vehicle: saline with Tween-80 108 % of control | [5] 101 % of control | dose: 200.0 mg/kg/injection, schedule: Q04DX002 (ip), vehicle: saline with Tween-80 102 % of control | [6] 103 % of control | dose: 400.0 mg/kg/injection, schedule: Q04DX002 (ip), vehicle: saline with Tween-80 97 % of control

c1ccc(-c2ccno2)cc1
inactive: dose: 6.25 mg/kg/injection, schedule: Q01DX009 (ip), vehicle: saline with Tween-80 98 % of control | dose: 12.5 mg/kg/injection, schedule: Q01DX009 (ip), vehicle: saline with Tween-80 106 % of control | dose: 25.0 mg/kg/injection, schedule: Q01DX009 (ip), vehicle: saline with Tween-80 107 % of control | dose: 75.0 mg/kg/injection, schedule: Q01DX009 (ip), vehicle: saline with Tween-80 90 % of control

C=CCC(C(=O)OC)C(=O)C(C)(C)C (configuration not stated)
inactive: [1] 100 % of control | [2] 92 % of control | [5] 100 % of control

COC(=O)C1CC(O)CC(C(=O)OC)O1 (configuration not stated)
inactive: [7] 109 % of control | [8] 93 % of control

COc1ccc(-n2c(O)c(N=Nc3ccccc3C)c(=O)n(-c3ccccc3)c2=S)cc1
inactive: dose: 37.5 mg/kg/injection, schedule: Q01DX001 (ip), vehicle: Klucel (hydroxypropylcellulose) (HPC) 103 % of control | dose: 75.0 mg/kg/injection, schedule: Q01DX001 (ip), vehicle: Klucel (hydroxypropylcellulose) (HPC) 97 % of control | dose: 150.0 mg/kg/injection, schedule: Q01DX001 (ip), vehicle: Klucel (hydroxypropylcellulose) (HPC) 94 % of control

CC(COC(=O)c1ccc(N)cc1)NC1CCCCC1 (configuration not stated)
inactive: dose: 75.0 mg/kg/injection, schedule: Q01DX001 (ip), vehicle: other 96 % of control | dose: 150.0 mg/kg/injection, schedule: Q01DX001 (ip), vehicle: other 102 % of control

Nc1nc(O)c2[nH]c(N=Nc3ccc(-c4ccc(N=Nc5nc6nc(N)nc(O)c6[nH]5)cc4)cc3)nc2n1
inactive: [9] 98 % of control | [10] 93 % of control | [11] 88 % of control

OCC1OC(n2ccc3cncnc32)C(O)C1O (configuration not stated)
inactive: dose: 5.0 mg/kg/injection, schedule: Q01DX001 (ip), vehicle: saline 106 % of control | dose: 10.0 mg/kg/injection, schedule: Q01DX001 (ip), vehicle: saline 109 % of control | dose: 20.0 mg/kg/injection, schedule: Q01DX001 (ip), vehicle: saline 106 % of control | dose: 40.0 mg/kg/injection, schedule: Q01DX001 (ip), vehicle: saline 106 % of control

CCCCCC1SC1CC1SC1CCCCCCCC(=O)NCCCOCCOCCOCC (configuration not stated)
inactive: [2] 121 % of control | [5] 104 % of control

O=C(NCc1cccnc1)c1ccccc1N=Cc1cc(Cl)cc(Cl)c1O
inactive: dose: 100.0 mg/kg/injection, schedule: Q01DX009 (ip), vehicle: Klucel (hydroxypropylcellulose) (HPC) 98 % of control | dose: 200.0 mg/kg/injection, schedule: Q01DX009 (ip), vehicle: Klucel (hydroxypropylcellulose) (HPC) 96 % of control | dose: 400.0 mg/kg/injection, schedule: Q01DX009 (ip), vehicle: Klucel (hydroxypropylcellulose) (HPC) 89 % of control

Cc1ccc(NC(=O)/C=C/C(=O)Nc2ccc(C)cc2)cc1
inactive: [12] 103 % of control | [13] 100 % of control | [14] 103 % of control

O=Cc1ccc(OC(=O)Nc2ccccc2F)cc1
inactive: dose: 100.0 mg/kg/injection, schedule: Q01DX001 (ip), vehicle: saline 96 % of control | dose: 100.0 mg/kg/injection, schedule: Q01DX009 (ip), vehicle: saline 98 % of control and 101 % of control | dose: 100.0 mg/kg/injection, schedule: Q04DX002 (ip), vehicle: saline 103 % of control and 107 % of control | dose: 200.0 mg/kg/injection, schedule: Q01DX001 (ip), vehicle: saline 99 % of control | dose: 200.0 mg/kg/injection, schedule: Q01DX009 (ip), vehicle: saline 106 % of control and 112 % of control | dose: 200.0 mg/kg/injection, schedule: Q04DX002 (ip), vehicle: saline 100 % of control and 104 % of control | dose: 400.0 mg/kg/injection, schedule: Q01DX001 (ip), vehicle: saline 92 % of control | dose: 400.0 mg/kg/injection, schedule: Q01DX009 (ip), vehicle: saline 96 % of control | dose: 400.0 mg/kg/injection, schedule: Q04DX002 (ip), vehicle: saline 93 % of control and 109 % of control

COc1cc(N)ccc1C(=O)O
inactive: [12] 94 % of control | [13] 96 % of control | [14] 97 % of control

NNC(=O)C1CC2C=CCC(C2)C1 (configuration not stated)
inactive: dose: 100.0 mg/kg/injection, schedule: Q01DX001 (ip), vehicle: saline with Tween-80 98 % of control | dose: 200.0 mg/kg/injection, schedule: Q01DX001 (ip), vehicle: saline with Tween-80 92 % of control

O=[N+]([O-])c1ccc(Sc2cccs2)c([N+](=O)[O-])c1
inactive: [2] 97 % of control | [3] 105 % of control | [5] 100 % of control | [4] 93 % of control | [6] 102 % of control | [15] 93 % of control

NC(=O)/C(=C\c1ccc([N+](=O)[O-])o1)c1ccccc1
inactive: dose: 100.0 mg/kg/injection, schedule: Q01DX001 (ip), vehicle: Klucel (hydroxypropylcellulose) (HPC) 96 % of control | dose: 200.0 mg/kg/injection, schedule: Q01DX001 (ip), vehicle: Klucel (hydroxypropylcellulose) (HPC) 93 % of control | dose: 400.0 mg/kg/injection, schedule: Q01DX001 (ip), vehicle: Klucel (hydroxypropylcellulose) (HPC) 96 % of control

Oc1c(Br)cc(C(c2cc(Br)c(O)c(Br)c2)c2ccccn2)cc1Br
inactive: [9] 104 % of control | [10] 100 % of control | [11] 104 % of control

CCOC(=O)N(CCC(=O)OC(C)(C)C)CC(=O)OC(C)(C)C
inactive: [7] 92 % of control | [8] 95 % of control | dose: 300.0 mg/kg/injection, schedule: Q01DX001 (ip), vehicle: saline 101 % of control

O=C(CCc1ccncc1)c1ccccc1
inactive: dose: 50.0 mg/kg/injection, schedule: Q01DX001 (ip), vehicle: carboxymethylcellulose (CMC) 114 % of control | [16] 102 % of control | [17] 102 % of control | [18] 102 % of control

C=Cc1cc[n+](CCCCC[n+]2ccc(C=C)cc2)cc1
inactive: [16] 96 % of control | [17] 98 % of control | [18] 93 % of control

COc1ccc(C2OC23CC(C)(C)c2ccccc2C3=O)cc1 (configuration not stated)
inactive: [3] 93 % of control | [4] 89 % of control | [15] 94 % of control
